Among the test systems are A498 renal; A549 NSCLC; HL-60(TB) leukemia; OVCAR-5 ovarian; SF-268 CNS; HOP-62 NSCLC; PC-3 prostate; NCI-H460 lung; SR leukemia; MOLT-4 leukemia.
Holding throughout (test): NCI-60 cell line screen, 48 h

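Assay format: 96-well plates, 48-hour exposure. Abbreviation: GI50, concentration required for 50% inhibition of growth. At the TGI there is no net growth.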 Bounds are passed on as bounds.

Turning to `O=C(O)c1cn(C2CC2)c2cc(N3CCN(Cc4c(O)ccc5ccccc45)CC3)c(F)cc2c1=O`, the GI50 in the experiment on A498 renal was 1.48 µM; in the experiment on A549 NSCLC it was 4.03 µM; with HL-60(TB) leukemia it was more than 100 µM; in the experiment with OVCAR-5 ovarian, more than 100 µM; in the experiment on SF-268 CNS, 56.8 µM; in the experiment on HOP-62 NSCLC it was 3.99 µM. Moreover, the GI50 in the experiment on PC-3 prostate is 3.75 µM. In addition, the TGI in the experiment with A498 renal was 4.47 µM; in the experiment on A549 NSCLC, more than 100 µM; in the experiment with HL-60(TB) leukemia, more than 100 µM; in the experiment on OVCAR-5 ovarian it was more than 100 µM; with SF-268 CNS, more than 100 µM; in the experiment on HOP-62 NSCLC it was 43.1 µM. This compound had a TGI in the experiment on PC-3 prostate of more than 100 µM.
As to `COc1cc(/C=C/C(=O)c2c(-c3ccc(F)cc3)nc3sc(C)nn23)cc(OC)c1OC`, the GI50 in the experiment with A498 renal is 2.3 µM; with A549 NSCLC, 2.53 µM; in the experiment with HL-60(TB) leukemia it was 2.44 µM; with OVCAR-5 ovarian, 3.46 µM; in the experiment on NCI-H460 lung, 1.94 µM; in the experiment with SF-268 CNS, 2.74 µM. The GI50 is 1.77 µM in the experiment on SR leukemia, 2.28 µM in the experiment on HOP-62 NSCLC and 2.3 µM in the experiment on MOLT-4 leukemia. Moreover, the TGI in the experiment on A498 renal is 7.23 µM; in the experiment with A549 NSCLC it was 8.63 µM; in the experiment with HL-60(TB) leukemia it was 6.17 µM; in the experiment on OVCAR-5 ovarian, 9.92 µM; in the experiment on NCI-H460 lung it was 4.08 µM; in the experiment with SF-268 CNS it was 8.96 µM. The TGI stood at 5.27 µM in the experiment on SR leukemia, 7.06 µM in the experiment with HOP-62 NSCLC and 6.72 µM in the experiment with MOLT-4 leukemia.
As to `CC[PH+](CC)CC.CC[PH+](CC)CC.[Au]`, the GI50 in the experiment with A549 NSCLC is 22.8 µM; with HL-60(TB) leukemia, 0.345 µM; with OVCAR-5 ovarian, 25.8 µM; in the experiment on NCI-H460 lung it was 23.5 µM; in the experiment on SF-268 CNS it was 13.4 µM; in the experiment on HOP-62 NSCLC, 22 µM. Besides, the GI50 with MOLT-4 leukemia is 5.33 µM. Besides, the TGI in the experiment with A549 NSCLC is 53.1 µM; in the experiment on HL-60(TB) leukemia, 2.09 µM; in the experiment on OVCAR-5 ovarian, 41.5 µM; in the experiment with NCI-H460 lung, 60.9 µM; in the experiment with SF-268 CNS, 30.1 µM; in the experiment on HOP-62 NSCLC, 36.6 µM. Further, the TGI in the experiment on MOLT-4 leukemia is 24.1 µM.
Turning to `C=C1C(=O)C2=CC1CCC(=O)C1(C)CCC(OC(C)=O)C(C)(C)C1CC2O` (stereo not drawn), the TGI with A498 renal is 12.6 µM; with A549 NSCLC, 22.4 µM; in the experiment on OVCAR-5 ovarian it was 18.9 µM; in the experiment with NCI-H460 lung, 4.64 µM; with SF-268 CNS, 38.7 µM; in the experiment on HOP-62 NSCLC, 22.8 µM. In the experiment on PC-3 prostate, this compound showed a TGI of 28.8 µM.
`O=c1cccc2n1CC1CNC[C@H]2C1`: the TGI in the experiment with A549 NSCLC, in the experiment on OVCAR-5 ovarian, with NCI-H460 lung, in the experiment on SF-268 CNS, in the experiment on HOP-62 NSCLC and in the experiment on PC-3 prostate was more than 100 µM throughout. Also, the TGI with MOLT-4 leukemia was more than 100 µM.
Turning to `Cc1ccc(OCCOCCOCCOCCOCCOc2ccc(C)n(O)c2=S)c(=S)n1O`, the GI50 in the experiment with A498 renal is 0.149 µM; in the experiment with A549 NSCLC, 0.0741 µM; in the experiment on HL-60(TB) leukemia, 0.0441 µM; in the experiment on OVCAR-5 ovarian, 0.0634 µM; in the experiment with NCI-H460 lung, 0.0252 µM; in the experiment with SF-268 CNS, 0.0693 µM. Further, the GI50 in the experiment with HOP-62 NSCLC is 0.0789 µM; with PC-3 prostate, 0.345 µM; in the experiment with MOLT-4 leukemia it was 0.0422 µM. Moreover, the TGI in the experiment with A498 renal was 3.88 µM; in the experiment with A549 NSCLC it was more than 100 µM; in the experiment with HL-60(TB) leukemia, 0.638 µM; with OVCAR-5 ovarian, more than 100 µM; with NCI-H460 lung, 11.6 µM; in the experiment on SF-268 CNS, more than 100 µM. For the same compound, the TGI in the experiment with HOP-62 NSCLC was more than 84.6 µM; in the experiment with PC-3 prostate, more than 100 µM; with MOLT-4 leukemia, more than 100 µM.
On to `COC(=O)C1[C@H](c2ccc3c(c2)OCO3)OC(=O)[C@]1(C(=O)OC)C(=O)c1ccc(OC)c(OC)c1` (stereo partly drawn), for which the TGI in the experiment with A498 renal was more than 100 µM; in the experiment with HL-60(TB) leukemia it was 55.2 µM; in the experiment on OVCAR-5 ovarian, more than 100 µM; in the experiment with NCI-H460 lung it was more than 100 µM; in the experiment on SR leukemia, more than 100 µM; in the experiment with HOP-62 NSCLC, more than 100 µM. In the experiment with MOLT-4 leukemia, the TGI is 87.2 µM.
For the compound `c1ccc2c(CNCCCCCCCCNCc3cccc4ccccc34)cccc2c1`, the TGI stood at 28.4 µM in the experiment on A498 renal; 5.41 µM in the experiment on A549 NSCLC; 4.64 µM in the experiment on HL-60(TB) leukemia; 4.14 µM in the experiment with OVCAR-5 ovarian; 2.8 µM in the experiment on NCI-H460 lung; 21.4 µM with SF-268 CNS. Further, the TGI with HOP-62 NSCLC turned out to be 30.1 µM; in the experiment on MOLT-4 leukemia it was 9.64 µM.
Regarding `Cc1[nH]nc2ncc(C(=O)N3CCC[C@H]3c3ccc(Cl)cc3)cc12`, the GI50 in the experiment with A498 renal was 32.5 µM; with A549 NSCLC it was more than 100 µM; in the experiment with HL-60(TB) leukemia, 32.6 µM; with OVCAR-5 ovarian, more than 100 µM; in the experiment with NCI-H460 lung, more than 100 µM; in the experiment with SF-268 CNS, more than 100 µM. In addition, the figures for the GI50 with HOP-62 NSCLC, with PC-3 prostate and in the experiment on MOLT-4 leukemia were more than 100 µM, 45.6 µM and 72.1 µM, respectively. In addition, the TGI with A498 renal is more than 100 µM; with A549 NSCLC it was more than 100 µM; with HL-60(TB) leukemia, 90.7 µM; with OVCAR-5 ovarian, more than 100 µM; in the experiment on NCI-H460 lung it was more than 100 µM; in the experiment with SF-268 CNS, more than 100 µM. For the same compound, the TGI in the experiment on HOP-62 NSCLC, in the experiment with PC-3 prostate and with MOLT-4 leukemia was more than 100 µM throughout.
Turning to `O=[N+]([O-])C=C1c2ccccc2-c2ccccc21`, the TGI was determined as 34.6 µM with A498 renal; 42.8 µM in the experiment with A549 NSCLC; 23.7 µM with HL-60(TB) leukemia; 31.4 µM in the experiment on OVCAR-5 ovarian; 38.9 µM in the experiment on NCI-H460 lung; 36.4 µM in the experiment with SF-268 CNS. For the same compound, the TGI with SR leukemia came out at 28.5 µM; in the experiment with HOP-62 NSCLC it was 31.3 µM; in the experiment on MOLT-4 leukemia, 53.5 µM.
`N#CCc1nnc(N)o1`: the TGI in the experiment on A549 NSCLC, with HL-60(TB) leukemia, in the experiment with SF-268 CNS, in the experiment with SR leukemia and in the experiment with MOLT-4 leukemia was more than 100 µM in each case.
Regarding `Cc1ccc(C2=Nc3ccccc3S(=O)C(c3ccc4c(c3)OCO4)C2)cc1` (stereo not drawn), the TGI was 51.7 µM in the experiment with A498 renal; more than 100 µM with A549 NSCLC; 59.1 µM in the experiment on HL-60(TB) leukemia; more than 10 µM in the experiment with NCI-H460 lung; 50.5 µM in the experiment on SF-268 CNS; more than 100 µM in the experiment with SR leukemia. In addition, the TGI with HOP-62 NSCLC and in the experiment on MOLT-4 leukemia was more than 100 µM in each case.

The values above are taken from PubChem BioAssay (NCI).
